BigSolDB 2.1

CC(C)(C)NCC(O)c1ccc(O)c(CO)c1 (stereo not given)
solubility (mole fraction)
Details | in acetone | in ethanol | in ethyl acetate | in isobutanol | in isopropanol | in methanol | in methyl acetate | in n-butanol | in n-propanol | in sec-butanol
283.15 K | 0.000146 | 0.00218 | 0.000185 | 0.00154 | 0.00185 | 0.00599 | 0.000377 | 0.00109 | 0.00212 | 0.00102
288.15 K | 0.000162 | 0.00228 | 0.000204 | 0.00172 | 0.00205 | 0.00671 | 0.00041 | 0.0012 | 0.00235 | 0.00115
293.15 K | 0.000185 | 0.00271 | 0.000231 | 0.00192 | 0.00244 | 0.00745 | 0.000441 | 0.00134 | 0.00267 | 0.00131
298.15 K | 0.000211 | 0.00323 | 0.000261 | 0.00217 | 0.00278 | 0.00824 | 0.000471 | 0.00151 | 0.00317 | 0.00145
303.15 K | 0.000237 | 0.00412 | 0.00029 | 0.00243 | 0.00331 | 0.00909 | 0.000509 | 0.00168 | 0.0036 | 0.00163
308.15 K | 0.000271 | 0.0049 | 0.000323 | 0.00272 | 0.00382 | 0.0101 | 0.000545 | 0.00187 | 0.00413 | 0.00182
313.15 K | 0.000302 | 0.00585 | 0.000363 | 0.00304 | 0.00441 | 0.0112 | 0.00059 | 0.00211 | 0.00479 | 0.00202
318.15 K | 0.000346 | 0.00709 | 0.000399 | 0.00343 | 0.00512 | 0.0124 | 0.000631 | 0.00233 | 0.00552 | 0.00227
323.15 K | 0.000396 | 0.00846 | 0.000452 | 0.00385 | 0.00597 | 0.0137 | 0.000682 | 0.00262 | 0.00634 | 0.00252
328.15 K | 0.000451 | 0.0103 | 0.000501 | 0.00432 | 0.00698 | 0.0152 | 0.000735 | 0.00292 | 0.00743 | 0.00286
